From ChEMBL document CHEMBL4382259, “Synthesis of novel guttiferone E and xanthochymol derivatives with cytotoxicities by inducing cell apoptosis and arresting the cell cycle phase” (Eur J Med Chem, 2019)
The source made the active and inactive calls. The rule behind the calls is not given here.

Assays:
HEL [1] = test: Down regulation of Bcl2 expression in HEL cells after 24 hrs by Western blot analysis; type: functional, cell-based; conditions: Homo sapiens
HEL [2] = test: Induction of apoptosis in HEL cells assessed as viable cells at 2.5 uM after 24 hrs by Annexin V-FITC/propidium iodide staining based flow cytometry (reference value: 88.6%); type: functional; conditions: Homo sapiens, read-out: Activity
HEL [3] = test: Induction of apoptosis in HEL cells assessed as early apoptotic cells at 5 uM after 48 hrs by Annexin V-FITC/propidium iodide staining based flow cytometry (reference value: 8%); type: functional, Homo sapiens
HEL [4] = test: Induction of apoptosis in HEL cells assessed as early apoptotic cells at 10 uM after 24 hrs by Annexin V-FITC/propidium iodide staining based flow cytometry (reference value: 9.9%); type: functional, Homo sapiens
HEL [5] = test: Induction of morphological changes in HEL cells assessed as cell shrinkage at 5 uM after 48 hrs by microscopic analysis; type: functional, cell-based; conditions: Homo sapiens
HEL [6] = test: Induction of apoptosis in HEL cells assessed as late apoptotic cells at 10 uM after 24 hrs by Annexin V-FITC/propidium iodide staining based flow cytometry (reference value: 1.2%); type: functional, Homo sapiens
HEL [7] = test: Induction of cell death in HEL cells at 10 uM after 48 hrs by microscopic analysis; type: functional, cell-based; conditions: Homo sapiens
HEL [8] = test: Cell cycle arrest in HEL cells assessed as accumulation at G2/M phase at 5 uM after 48 hrs propidium iodide staining based flow cytometry (reference value: 14.33%); type: functional, Homo sapiens
HEL [9] = test: Induction of apoptosis in HEL cells assessed as late apoptotic cells at 2.5 uM after 48 hrs by Annexin V-FITC/propidium iodide staining based flow cytometry (reference value: 3.3%); type: functional, Homo sapiens
HEL [10] = test: Up regulation of cleaved caspase3 expression in HEL cells at 2.5 to 10 uM after 24 hrs by Western blot analysis; type: functional, cell-based; conditions: Homo sapiens
HEL [11] = test: Induction of apoptosis in HEL cells assessed as late apoptotic cells at 5 uM after 24 hrs by Annexin V-FITC/propidium iodide staining based flow cytometry (reference value: 1.2%); type: functional, Homo sapiens
HEL [12] = test: Induction of apoptosis in HEL cells assessed as late apoptotic cells at 10 uM after 48 hrs by Annexin V-FITC/propidium iodide staining based flow cytometry (reference value: 3.3%); type: functional, Homo sapiens
A549 = test: Antiproliferative activity against human A549 cells after 72 hrs by MTT assay; type: functional, cell-based; conditions: A549, 72 h
HEL [13] = test: Induction of apoptosis in HEL cells assessed as early apoptotic cells at 10 uM after 48 hrs by Annexin V-FITC/propidium iodide staining based flow cytometry (reference value: 8%); type: functional, Homo sapiens
HEL [14] = test: Induction of morphological changes in HEL cells at 2.5 uM after 48 hrs by microscopic analysis; type: functional, cell-based; conditions: Homo sapiens
HEL [15] = test: Antiproliferative activity against HEL cells after 72 hrs by MTT assay; type: functional, cell-based; conditions: Homo sapiens
HEL [16] = test: Induction of apoptosis in HEL cells assessed as necrotic cells at 10 uM after 48 hrs by Annexin V-FITC/propidium iodide staining based flow cytometry (reference value: 0.5%); type: functional, Homo sapiens
HEL [17] = test: Down regulation of full-length PARP1 expression in HEL cells at 2.5 to 10 uM after 24 hrs by Western blot analysis; type: functional, cell-based; conditions: Homo sapiens
HEL [18] = test: Induction of apoptosis in HEL cells assessed as late apoptotic cells at 2.5 uM after 24 hrs by Annexin V-FITC/propidium iodide staining based flow cytometry (reference value: 1.2%); type: functional, Homo sapiens
HEL [19] = test: Induction of apoptosis in HEL cells assessed as necrotic cells at 2.5 uM after 24 hrs by Annexin V-FITC/propidium iodide staining based flow cytometry (reference value: 0.2%); type: functional, Homo sapiens
HEL [20] = test: Induction of apoptosis in HEL cells assessed as viable cells at 5 uM after 24 hrs by Annexin V-FITC/propidium iodide staining based flow cytometry (reference value: 88.6%); type: functional; conditions: Homo sapiens, read-out: Activity
HEL [21] = test: Up regulation of Bax expression in HEL cells after 24 hrs by Western blot analysis; type: functional, cell-based; conditions: Homo sapiens
HEL [22] = test: Cell cycle arrest in HEL cells assessed as accumulation at S phase at 5 uM after 48 hrs propidium iodide staining based flow cytometry (reference value: 45.65%); type: functional, Homo sapiens
HEL [23] = test: Induction of apoptosis in HEL cells assessed as late apoptotic cells at 5 uM after 48 hrs by Annexin V-FITC/propidium iodide staining based flow cytometry (reference value: 3.3%); type: functional, Homo sapiens
K562 = test: Antiproliferative activity against human K562 cells after 72 hrs by MTT assay; type: functional, cell-based; conditions: K562, 72 h
MCF7 = test: Antiproliferative activity against human MCF7 cells after 72 hrs by MTT assay; type: functional, cell-based; conditions: MCF7, 72 h
HEL [24] = test: Cell cycle arrest in HEL cells assessed as accumulation at G0/G1 phase at 5 uM after 48 hrs propidium iodide staining based flow cytometry (reference value: 37.72%); type: functional, Homo sapiens
HEL [25] = test: Induction of morphological changes in HEL cells assessed as cell fragmentation at 5 uM after 48 hrs by microscopic analysis; type: functional, cell-based; conditions: Homo sapiens
HEL [26] = test: Induction of apoptosis in HEL cells assessed as early apoptotic cells at 2.5 uM after 24 hrs by Annexin V-FITC/propidium iodide staining based flow cytometry (reference value: 9.9%); type: functional, Homo sapiens
HEL [27] = test: Induction of apoptosis in HEL cells assessed as viable cells at 2.5 uM after 48 hrs by Annexin V-FITC/propidium iodide staining based flow cytometry (reference value: 88.3%); type: functional; conditions: Homo sapiens, read-out: Activity
HEL [28] = test: Induction of apoptosis in HEL cells assessed as viable cells at 10 uM after 24 hrs by Annexin V-FITC/propidium iodide staining based flow cytometry (reference value: 88.6%); type: functional; conditions: Homo sapiens, read-out: Activity
HEL [29] = test: Induction of apoptosis in HEL cells assessed as necrotic cells at 10 uM after 24 hrs by Annexin V-FITC/propidium iodide staining based flow cytometry (reference value: 0.2%); type: functional, Homo sapiens
HEL [30] = test: Induction of apoptosis in HEL cells assessed as viable cells at 10 uM after 48 hrs by Annexin V-FITC/propidium iodide staining based flow cytometry (reference value: 88.3%); type: functional; conditions: Homo sapiens, read-out: Activity
HEL [31] = test: Induction of apoptosis in HEL cells assessed as necrotic cells at 2.5 uM after 48 hrs by Annexin V-FITC/propidium iodide staining based flow cytometry (reference value: 0.5%); type: functional, Homo sapiens
HEL [32] = test: Down regulation of cyclin D1 expression in HEL cells at 2.5 to 10 uM after 24 hrs by Western blot analysis; type: functional, cell-based; conditions: Homo sapiens
HEL [33] = test: Induction of apoptosis in HEL cells assessed as viable cells at 5 uM after 48 hrs by Annexin V-FITC/propidium iodide staining based flow cytometry (reference value: 88.3%); type: functional; conditions: Homo sapiens, read-out: Activity
HEL [34] = test: Induction of apoptosis in HEL cells assessed as necrotic cells at 5 uM after 48 hrs by Annexin V-FITC/propidium iodide staining based flow cytometry (reference value: 0.5%); type: functional, Homo sapiens
HeLa = test: Antiproliferative activity against human HeLa cells after 72 hrs by MTT assay; type: functional, cell-based
HEL [35] = test: Induction of apoptosis in HEL cells assessed as early apoptotic cells at 2.5 uM after 48 hrs by Annexin V-FITC/propidium iodide staining based flow cytometry (reference value: 8%); type: functional, Homo sapiens
HEL [36] = test: Induction of apoptosis in HEL cells assessed as early apoptotic cells at 5 uM after 24 hrs by Annexin V-FITC/propidium iodide staining based flow cytometry (reference value: 9.9%); type: functional, Homo sapiens
HEL [37] = test: Induction of apoptosis in HEL cells assessed as necrotic cells at 5 uM after 24 hrs by Annexin V-FITC/propidium iodide staining based flow cytometry (reference value: 0.2%); type: functional, Homo sapiens

## CC(C)=CC[C@H]1C[C@]23C[C@@H](CC=C(C)C)C(C)(C)[C@H]4CCC(C)(C)O[C@]42OC(=O)C(C(=O)c2ccc(O)c(O)c2)=C3OC1(C)C
HEL [1]
  Activity: Dose-dependent effect
HEL [2]
  viability at 2.5 µM: 86.6%
HEL [3]
  Activity: 21%
HEL [4]
  Activity: 34.6%
HEL [5]
  Activity: Active
HEL [6]
  Activity: 3%
HEL [7]
  Activity: Active
HEL [8]
  Activity: 10.76%
HEL [9]
  Activity: 6.4%
HEL [10]
  Activity: Active
HEL [11]
  Activity: 3.3%
HEL [12]
  Activity: 15.9%
A549
  IC50: > 20 µM
HEL [13]
  Activity: 32.5%
HEL [14]
  Activity: Active
HEL [15]
  IC50: 4.79 µM
HEL [16]
  Activity: 2.4%
HEL [17]
  Activity: Active
HEL [18]
  Activity: 2.3%
HEL [19]
  Activity: 0.4%
HEL [20]
  viability at 5 µM: 80.9%
HEL [21]
  Activity: Dose-dependent effect
HEL [22]
  Activity: 28.81%
HEL [23]
  Activity: 5.8%
K562
  IC50: 7.69 µM
MCF7
  IC50: 13.5 µM
HEL [24]
  Activity: 59.29%
HEL [25]
  Activity: Active
HEL [26]
  Activity: 10.6%
HEL [27]
  viability at 2.5 µM: 84.8%
HEL [28]
  viability at 10 µM: 61.6%
HEL [29]
  Activity: 0.8%
HEL [30]
  viability at 10 µM: 49.2%
HEL [31]
  Activity: 1.6%
HEL [32]
  Activity: Active
HEL [33]
  viability at 5 µM: 72.6%
HEL [34]
  Activity: 0.6%
HeLa
  IC50: > 20 µM
HEL [35]
  Activity: 7.2%
HEL [36]
  Activity: 15.3%
HEL [37]
  Activity: 0.4%

## CC(C)=CC[C@H]1C[C@]23C[C@@H](CC=C(C)C)C(C)(C)[C@H]4CCC(C)(C)O[C@]42OC(=O)C(C(=O)c2ccc(OC(=O)c4ccc(F)cc4)c(OC(=O)c4ccc(F)cc4)c2)=C3OC1(C)C
A549
  IC50: 11.7 µM
HEL [15]
  IC50: > 20 µM
K562
  IC50: > 20 µM
MCF7
  IC50: 16.8 µM
HeLa
  IC50: 11.9 µM

## CC(C)=CC[C@H]1C[C@@]23C[C@@H](CC=C(C)C)C(C)(C)[C@@](CC=C(C)C)(C(=O)C(C(=O)c4ccc(O)c(OC(=O)c5ccccc5)c4)=C2OC1(C)C)C3=O
A549
  IC50: 9.33 µM
HEL [15]
  IC50: 9.51 µM
K562
  IC50: 13.8 µM
MCF7
  IC50: 9.99 µM
HeLa
  IC50: 6.17 µM

## CCN(CC)CCCCCOc1ccc(C(=O)C2=C3OC(C)(C)[C@@H](CC=C(C)C)C[C@@]34C[C@@H](CC=C(C)C)C(C)(C)[C@@](CC=C(C)C)(C2=O)C4=O)cc1OCCCCCN(CC)CC
A549
  IC50: 17.2 µM
HEL [15]
  IC50: > 20 µM
K562
  IC50: > 20 µM
MCF7
  IC50: 7.56 µM
HeLa
  IC50: 11.3 µM

## C=CCOc1ccc(C(=O)C2=C3OC(C)(C)[C@@H](CC=C(C)C)C[C@@]34C[C@@H](CC=C(C)C)C(C)(C)[C@@](CC=C(C)C)(C2=O)C4=O)cc1O
A549
  IC50: > 20 µM
HEL [15]
  IC50: > 20 µM
K562
  IC50: > 20 µM
MCF7
  IC50: 11.5 µM
HeLa
  IC50: 15 µM

## CCCCCC(=O)Oc1ccc(C(=O)C2=C3OC(C)(C)[C@@H](CC=C(C)C)C[C@@]34C[C@@H](CC=C(C)C)C(C)(C)[C@H]3CCC(C)(C)O[C@]34OC2=O)cc1OC(=O)CCCCC
A549
  IC50: 19.2 µM
HEL [15]
  IC50: 19.9 µM
K562
  IC50: > 20 µM
MCF7
  IC50: 16.6 µM
HeLa
  IC50: 15.4 µM

## CC(C)=CC[C@H]1C[C@@]23C[C@@H](CC=C(C)C)C(C)(C)[C@@](CC=C(C)C)(C(=O)C(C(=O)c4ccc(OC(=O)CCCCCBr)c(OC(=O)CCCCCBr)c4)=C2OC1(C)C)C3=O
A549
  IC50: > 20 µM
HEL [15]
  IC50: > 20 µM
K562
  IC50: > 20 µM
MCF7
  IC50: > 20 µM
HeLa
  IC50: > 20 µM

## CC(C)=CC[C@H]1C[C@@]23C[C@@H](CC=C(C)C)C(C)(C)[C@@](CC=C(C)C)(C(=O)C(C(=O)c4ccc(OCCCCCBr)c(OCCCCCBr)c4)=C2OC1(C)C)C3=O
A549
  IC50: > 20 µM
HEL [15]
  IC50: > 20 µM
K562
  IC50: > 20 µM
MCF7
  IC50: > 20 µM
HeLa
  IC50: > 20 µM
